In brackets after ≈: the same amount, converted by molar mass.
Key:
[1] = tested on: carbapenem-susceptible A. baumannii isolates (n = 54); assay: MIC, broth microdilution (EUCAST), carbapenem-susceptible A. baumannii isolates; assay type: cell-based, Acinetobacter baumannii
How it was run: (§1)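 Broth microdilution per EUCAST v.15 guidelines on clinical Acinetobacter isolates from a Spanish 2020 multicenter collection; enmetazobactam also tested alone. A. baumannii ATCC 19606 served as reference strain, in duplicate assays.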

[2] = tested on: carbapenem-resistant A. baumannii (CRAB) isolates (n = 67); assay: MIC, broth microdilution (EUCAST), carbapenem-resistant A. baumannii isolates; assay type: cell-based, Acinetobacter baumannii; details: for MIC: Acinetobacter baumannii, MBC set
How it was run: as §1

[3] = Acinetobacter baumannii, carbapenem-susceptible A. baumannii isolates (n = 54), ETZ fixed 8 mg/L in combinations

CC1(C)[C@H](C(=O)O)N2C(=O)C[C@H]2S1(=O)=O [sulbactam]
MIC distribution 0.12 [1]: 0
MIC distribution 0.25 [1]: 0
MIC distribution 0.5 [1]: 27.8
MIC distribution 1 [1]: 79.6
MIC distribution 2 [1]: 96.3
MIC distribution 4 [1]: 100
MIC distribution 8 [1]: 100
MIC distribution 16 [1]: 100
MIC distribution ≤0.06 [1]: 0
MIC distribution ≥32 [1]: 100
MIC ([1]; Acinetobacter baumannii, MBC set, isolate Ab1, A. baumannii ST 164, ADC-6, OXA-91, non-CHDLs-producing): 0.5 µg/mL (≈ 2.14 µM)
MIC ([1]; Acinetobacter baumannii, MBC set, isolate Ab11, A. baumannii ST 239, ADC-2, OXA-51, non-CHDLs-producing): 1 µg/mL (≈ 4.29 µM)
MIC ([1]; Acinetobacter baumannii, MBC set, isolate Ab34, A. baumannii ST 2182, ADC-2, OXA-130, non-CHDLs-producing): 0.5 µg/mL (≈ 2.14 µM)
MIC ([1]; Acinetobacter baumannii, isolate Ab1, ST 164, ADC-6, OXA-91, in combinations ETZ fixed at 8 mg/L): 1 µg/mL
MIC ([1]; Acinetobacter baumannii, isolate Ab11, ST 239, ADC-2, OXA-51, in combinations ETZ fixed at 8 mg/L): 1 µg/mL
MIC ([1]; Acinetobacter baumannii, isolate Ab34, ST 2182, ADC-2, OXA-130, in combinations ETZ fixed at 8 mg/L): 0.5 µg/mL
MIC ([1]; Acinetobacter baumannii, isolate Ab38, ST 866, ADC-2, OXA-385, in combinations ETZ fixed at 8 mg/L): 1 µg/mL
MIC ([1]; Acinetobacter baumannii, isolate Ab40, ST 2176, ADC-2, OXA-64, in combinations ETZ fixed at 8 mg/L): 1 µg/mL
MIC ([1]; Acinetobacter baumannii, isolate Ab50, ST 2176, ADC-2, OXA-64, in combinations ETZ fixed at 8 mg/L): 1 µg/mL
MIC ([1]; Acinetobacter baumannii, isolate Ab57, ST 1470, ADC-58, OXA-106, in combinations ETZ fixed at 8 mg/L): 1 µg/mL
MIC ([1]; Acinetobacter baumannii, isolate Ab58, ST 6, ADC-2, OXA-94, in combinations ETZ fixed at 8 mg/L): 2 µg/mL
MIC ([1]; Acinetobacter baumannii, isolate Ab61, ST 1639, ADC-7, OXA-64, in combinations ETZ fixed at 8 mg/L): 2 µg/mL
MIC ([1]; Acinetobacter baumannii, isolate Ab62, ST 265, ADC-2, OXA-91, in combinations ETZ fixed at 8 mg/L): 1 µg/mL
MIC ([1]; Acinetobacter baumannii, isolate Ab67, ST 1, ADC-11, OXA-69, in combinations ETZ fixed at 8 mg/L): 1 µg/mL
MIC ([1]; Acinetobacter baumannii, isolate Ab79, ST 106, ADC-11, OXA-78, in combinations ETZ fixed at 8 mg/L): 1 µg/mL
MIC ([1]; Acinetobacter baumannii, isolate Ab80, ST 2182, ADC-6, OXA-208, in combinations ETZ fixed at 8 mg/L): 4 µg/mL
MIC ([1]; Acinetobacter baumannii, isolate Ab81, ST 25, ADC-79, OXA-64, in combinations ETZ fixed at 8 mg/L): 2 µg/mL
MIC ([1]; Acinetobacter baumannii, isolate Ab93, ST 25, ADC-79, OXA-64, in combinations ETZ fixed at 8 mg/L): 1 µg/mL
MIC ([1]; Acinetobacter baumannii, isolate Ab95, ST 582, ADC-5, OXA-317, in combinations ETZ fixed at 8 mg/L): 1 µg/mL
MIC ([1]; Acinetobacter baumannii, isolate Ab96, ST 582, ADC-5, OXA-317, in combinations ETZ fixed at 8 mg/L): 1 µg/mL
MIC ([1]; Acinetobacter baumannii, isolate Ab100, ST 145, ADC-58, OXA-343, in combinations ETZ fixed at 8 mg/L): 1 µg/mL
MIC ([1]; Acinetobacter baumannii, isolate Ab110, ST 1623, ADC-3, OXA-70, in combinations ETZ fixed at 8 mg/L): 1 µg/mL
MIC ([1]; Acinetobacter baumannii, isolate Ab112, ST 193, ADC-like, OXA-120, in combinations ETZ fixed at 8 mg/L): 0.5 µg/mL
MIC ([1]; Acinetobacter baumannii, isolate Ab124, ST 2176, ADC-2, OXA-64, in combinations ETZ fixed at 8 mg/L): 1 µg/mL
MIC ([1]; Acinetobacter baumannii, isolate Ab127, ST 2176, ADC-2, OXA-64, in combinations ETZ fixed at 8 mg/L): 2 µg/mL
MIC ([1]; Acinetobacter baumannii, isolate Ab128, ST 2176, ADC-2, OXA-64, in combinations ETZ fixed at 8 mg/L): 1 µg/mL
MIC ([1]; Acinetobacter baumannii, isolate Ab130, ST 32, ADC-79, OXA-100, in combinations ETZ fixed at 8 mg/L): 2 µg/mL
MIC ([1]; Acinetobacter baumannii, isolate Ab131, ST 687, ADC-like, OXA-208, in combinations ETZ fixed at 8 mg/L): 1 µg/mL
MIC ([1]; Acinetobacter baumannii, isolate Ab132, ST 1112, ADC-79, OXA-89, in combinations ETZ fixed at 8 mg/L): 2 µg/mL
MIC ([1]; Acinetobacter baumannii, isolate Ab136, ST 2183, ADC-like, OXA-66, in combinations ETZ fixed at 8 mg/L): 1 µg/mL
MIC ([1]; Acinetobacter baumannii, isolate Ab139, ST 54, ADC-like, OXA-365, in combinations ETZ fixed at 8 mg/L): 1 µg/mL
MIC ([1]; Acinetobacter baumannii, isolate Ab142, ST 1, ADC-like, OXA-69, in combinations ETZ fixed at 8 mg/L): 4 µg/mL
MIC ([1]; Acinetobacter baumannii, isolate Ab143, ST 1328, ADC-76, OXA-408, in combinations ETZ fixed at 8 mg/L): 2 µg/mL
MIC ([1]; Acinetobacter baumannii, isolate Ab149, ST 1112, ADC-6, OXA-407, in combinations ETZ fixed at 8 mg/L): 1 µg/mL
MIC ([1]; Acinetobacter baumannii, isolate Ab150, ST 2184, ADC-like, OXA-64, in combinations ETZ fixed at 8 mg/L): 2 µg/mL
MIC ([1]; Acinetobacter baumannii, isolate Ab152, ST 132, ADC-2, OXA-120, in combinations ETZ fixed at 8 mg/L): 1 µg/mL
MIC ([1]; Acinetobacter baumannii, isolate Ab158, ST 2034, ADC-2, OXA-217, in combinations ETZ fixed at 8 mg/L): 0.5 µg/mL
MIC ([1]; Acinetobacter baumannii, isolate Ab163, ST 132, ADC-2, OXA-120, in combinations ETZ fixed at 8 mg/L): 0.5 µg/mL
MIC ([1]; Acinetobacter baumannii, isolate Ab167, ST 1623, ADC-like, OXA-345, in combinations ETZ fixed at 8 mg/L): 0.5 µg/mL
MIC ([1]; Acinetobacter baumannii, isolate Ab168, ST 1470, ADC-75, OXA-402, in combinations ETZ fixed at 8 mg/L): 0.5 µg/mL
MIC ([1]; Acinetobacter baumannii, isolate Ab170, ST 2110, ADC-4, OXA-338, in combinations ETZ fixed at 8 mg/L): 1 µg/mL
MIC ([1]; Acinetobacter baumannii, isolate Ab172, ST 2185, ADC-5, OXA-217, in combinations ETZ fixed at 8 mg/L): 2 µg/mL
MIC ([1]; Acinetobacter baumannii, isolate Ab185, ST 2, ADC-26, OXA-66, in combinations ETZ fixed at 8 mg/L): 1 µg/mL
MIC ([1]; Acinetobacter baumannii, isolate Ab187, ST 105, ADC-2, OXA-430, in combinations ETZ fixed at 8 mg/L): 1 µg/mL
MIC ([1]; Acinetobacter baumannii, isolate Ab188, ST 203, ADC-6, OXA-217, PDC-1, in combinations ETZ fixed at 8 mg/L): 1 µg/mL
MIC ([1]; Acinetobacter baumannii, isolate Ab189, ST 1405, ADC-3, OXA-120, in combinations ETZ fixed at 8 mg/L): 0.5 µg/mL
MIC ([1]; Acinetobacter baumannii, isolate Ab190, ST 2186, ADC-6, OXA-413, in combinations ETZ fixed at 8 mg/L): 0.5 µg/mL
MIC ([1]; Acinetobacter baumannii, isolate Ab193, ST 164, ADC-6, OXA-91, in combinations ETZ fixed at 8 mg/L): 0.5 µg/mL
MIC ([1]; Acinetobacter baumannii, isolate Ab195, ST 1, ADC-11, OXA-69, in combinations ETZ fixed at 8 mg/L): 1 µg/mL
MIC ([1]; Acinetobacter baumannii, isolate Ab200, ST 1336, ADC-2, OXA-51, in combinations ETZ fixed at 8 mg/L): 0.5 µg/mL
MIC ([1]; Acinetobacter baumannii, isolate Ab202, ST 1, ADC-11, OXA-69, in combinations ETZ fixed at 8 mg/L): 1 µg/mL
MIC ([1]; Acinetobacter baumannii, isolate Ab203, ST 221, ADC-6, OXA-88, in combinations ETZ fixed at 8 mg/L): 0.5 µg/mL
MIC ([1]; Acinetobacter baumannii, isolate Ab206, ST 2187, ADC-58, OXA-69, in combinations ETZ fixed at 8 mg/L): 0.5 µg/mL
MIC ([1]; Acinetobacter baumannii, isolate Ab209, in combinations ETZ fixed at 8 mg/L): 0.5 µg/mL
MIC ([1]; Acinetobacter baumannii, isolate Ab213, in combinations ETZ fixed at 8 mg/L): 0.5 µg/mL
MIC ([1]; Acinetobacter baumannii, isolate Ab218, in combinations ETZ fixed at 8 mg/L): 1 µg/mL
MIC ([1]; Acinetobacter baumannii, isolate Ab220, in combinations ETZ fixed at 8 mg/L): 0.5 µg/mL
MIC50 [1, 3]: 1 µg/mL
MIC90 [1, 3]: 2 µg/mL
MIC distribution ≥64 [2]: 100%
MIC ([2]; isolate Ab4, A. baumannii ST 2, ADC-30, OXA-66, ISAba1-OXA-23): 16 µg/mL (≈ 68.6 µM)
MIC ([2]; isolate Ab6, A. baumannii ST 2, ADC-30, OXA-66, ISAba1-OXA-23, TEM-12): 16 µg/mL (≈ 68.6 µM)
MIC ([2]; isolate Ab9, A. baumannii ST 2, ADC-30, OXA-66, OXA-23, TEM-12): 4 µg/mL (≈ 17.1 µM)

From PMC12888861, “Antibacterial activity of enmetazobactam against Acinetobacter spp.: a molecular dissection of mechanism of action and resistance determinants” (Antimicrobial Agents and Chemotherapy, 2025)
